We go through 33 compounds from patent US20240018125A1, “CYCLIC ISOTHIOUREA DERIVATIVES AS CXCR4 MODULATORS” (ERMIUM THERAPEUTICS, priority 2020, published 2024).

The test system of data set [1] is peripheral blood mononuclear cells (PBMCs) from healthy donors. The experiment in a line: IFN production by R848-activated PBMCs, quantified with twINNE luciferase reporter cell line. Format: cell-based, human. The following applies: read-out: IC50 of anti-inflammatory activity (IFN production by activated PBMCs). The method, boiled down:
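Functional IFN was quantified by luciferase output from the twINNE ISRE-reporter line after 24 h on conditioned supernatants. Those supernatants came from human PBMCs (4.10^6/mL) pre-treated with compound and then stimulated for 24 h with 5 μg/mL resiquimod. IC50s were fitted by nonlinear variable-slope regression.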

Where a name gives a salt, the structure may show the parent alone. Read-outs that look alike come from different tables or passages of the source.

The term melting point denotes the temperature, or range, at which the solid turns liquid. `COc1cc2nc3n(c2cc1OC)C(O)(CSC1=NCc2ccccc2N1)CS3.Cl` (stereo not drawn) came in with a melting point of 235 to 240 °C.

Turning to `CC1(C)CN2C(CSC3=NCc4ccccc4N3)=CSC2=N1` (as salt: hydrochloride) [Example 3, 3-(((3,4-dihydroquinazolin-2-yl)thio)methyl)-6,6-dimethyl-5,6-dihydroimidazo[2,1-b]thiazole dihydrochloride], the melting point was in the range of 245 to 249 °C.

Compound `CC1(C)CN=C(SCC2=CSC3=Nc4ccccc4CN23)N1` (as salt: hydrochloride) [Example 5, 3-(((5,5-dimethyl-4,5-dihydro-1H-imidazol-2-yl)thio)methyl)-5H-thiazolo[2,3-b]quinazoline dihydrochloride] had a melting point of more than 250 °C.

Compound `CC1(C)CN2C(CSC3=NCc4ccccc4CN3)=CSC2=N1` (as salt: hydrochloride) [Example 7, 3-(((2,5-dihydro-1H-benzo[e][1,3]diazepin-3-yl)thio)methyl)-6,6-dimethyl-5,6-dihydroimidazo[2,1-b]thiazole dihydrochloride] showed a melting point of 127 to 134 °C.

`CC1(C)CN=C(SCC2=CSC3=NCc4ccccc4CN23)N1` (as salt: hydrochloride) [Example 8, 3-(((5,5-dimethyl-4,5-dihydro-1H-imidazol-2-yl)thio)methyl)-5,10-dihydrobenzo[e]thiazolo[3,2-a][1,3]diazepine dihydrochloride] came in with a melting point of 244 to 247 °C.

`C1=C(CSC2=NCc3ccccc3N2)N2Cc3ccccc3CN=C2S1` (as salt: hydrochloride) [Example 11, 3-(((3,4-dihydroquinazolin-2-yl)thio)methyl)-5,10-dihydrobenzo[e]thiazolo[3,2-a][1,3]diazepine dihydrochloride] registered a melting point of 189 to 193 °C.

In turn, `C1=C(CSC2=NCc3ccccc3N2)N2Cc3ccccc3N=C2S1` (as salt: hydrochloride) [Example 12, 3-(((1,4-dihydroquinazolin-2-yl)thio)methyl)-5H-thiazolo[2,3-b]quinazoline dihydrochloride] gave a melting point of more than 250 °C.

The compound `C1=C(CSC2=NCc3ccccc3N2)N2CC(C3CCCCC3)N=C2S1` (stereo not drawn) (as salt: hydrochloride) [Example 15, 6-cyclohexyl-3-(((3,4-dihydroquinazolin-2-yl)thio)methyl)-5,6-dihydroimidazo[2,1-b]thiazole dihydrochloride] came in with a melting point of 235 to 242 °C.

As for `Fc1cccc2c1CN1C(CSC3=NCc4ccccc4N3)=CSC1=N2` (as salt: hydrochloride) [Example 18, 3-(((3,4-dihydroquinazolin-2-yl)thio)methyl)-6-fluoro-5H-thiazolo[2,3-b]quinazoline dihydrochloride], the melting point was in the range of 193 to 203 °C.

`CC1(C)N=C(SCC2=CSC3=NCc4ccccc4CN23)Nc2ccccc21` (as salt: hydrochloride) [Example 21, 3-(((4,4-dimethyl-1,4-dihydroquinazolin-2-yl)thio)methyl)-5,10-dihydrobenzo[e]thiazolo[3,2-a][1,3]diazepine dihydrochloride] returned a melting point of more than 250 °C.

In turn, `Fc1cccc2c1CN=C(SCC1=CSC3=NCc4ccccc4CN13)N2` (as salt: hydrochloride) [Example 23, 3-(((5-fluoro-1,4-dihydroquinazolin-2-yl)thio)methyl)-5,10-dihydrobenzo[e]thiazolo[3,2-a][1,3]diazepine dihydrochloride] came in with a melting point of more than 240 °C.

`C1=C(CSC2=N[C@@H](c3ccccc3)[C@H](c3ccccc3)N2)N2Cc3ccccc3CN=C2S1` (as salt: hydrochloride) [Example 24, 3-((((4S,5S)-4,5-diphenyl-4,5-dihydro-1H-imidazol-2-yl)thio)methyl)-5,10-dihydrobenzo[e]thiazolo[3,2-a][1,3]diazepine dihydrochloride] displayed a melting point of 178 to 185 °C.

In turn, `C1=C(CSC2=NCCc3ccccc3N2)N2Cc3ccccc3CN=C2S1` (as salt: hydrochloride) [Example 25, 3-(((4,5-dihydro-1H-benzo[d][1,3]diazepin-2-yl)thio)methyl)-5,10-dihydrobenzo[e]thiazolo[3,2-a][1,3]diazepine dihydrochloride] gave a melting point of more than 250 °C.

Take `C1=C(CSC2=NCC(C3CCCCC3)N2)N2Cc3ccccc3CN=C2S1` (stereo not drawn) (as salt: hydrochloride) [Example 26, 3-(((4-cyclohexyl-4,5-dihydro-1H-imidazol-2-yl)thio)methyl)-5,10-dihydrobenzo[e]thiazolo[3,2-a][1,3]diazepine dihydrochloride]: the melting point was 174 to 180 °C.

In turn, `C1=C(CSC2=Nc3ccccc3C(c3ccccc3)N2)N2Cc3ccccc3CN=C2S1` (stereo not drawn) (as salt: hydrochloride) [Example 27, 3-(((4-phenyl-3,4-dihydroquinazolin-2-yl)thio)methyl)-5,10-dihydrobenzo[e]thiazolo[3,2-a][1,3]diazepine dihydrochloride] displayed a melting point of 203 to 210 °C.

For `C1=C(CSC2=NCc3ccccc3N2)N2Cc3cccnc3N=C2S1` (as salt: hydrochloride) [Example 28, 3-(((3,4-dihydroquinazolin-2-yl)thio)methyl)-5H-pyrido[2,3-d]thiazolo[3,2-a]pyrimidine trihydrochloride], the melting point lay in the range of 180 to 190 °C.

`CCCCC1CN=C(SCC2=CSC3=Nc4ccccc4CN23)N1` (stereo not drawn) (as salt: hydrochloride) [Example 29, 3-(((5-butyl-4,5-dihydro-1H-imidazol-2-yl)thio)methyl)-5H-thiazolo[2,3-b]quinazoline dihydrochloride] yielded a melting point of 227 to 234 °C.

As for `CC1(c2ccccc2)CN=C(SCC2=CSC3=NCc4ccccc4CN23)N1` (stereo not drawn) (as salt: hydrochloride) [Example 30, 3-(((5-methyl-5-phenyl-4,5-dihydro-1H-imidazol-2-yl)thio)methyl)-5,10-dihydrobenzo[e]thiazolo[3,2-a][1,3]diazepine dihydrochloride], the melting point was 195 to 200 °C.

For `C1=C(CSC2=N[C@@H]3CCCC[C@H]3N2)N2Cc3ccccc3N=C2S1` (as salt: hydrochloride) [Example 32, 3-((((3aR,7aR)-3a,4,5,6,7,7a-hexahydro-1H-benzo[d]imidazol-2-yl)thio)methyl)-5H-thiazolo[2,3-b]quinazoline dihydrochloride], the melting point is more than 250 °C.

Usually IC50 stands for the midpoint of a concentration-inhibition curve. As for `c1ccc2c(c1)CN=C(SCCN1CCCC1)NC2` [Example 186, 3-((2-(pyrrolidin-1-yl)ethyl)thio)-2,5-dihydro-1H-benzo[e][1,3]diazepine dihydrochloride], the IC50 in data set [1] (Homo sapiens, PBMC) was more than 32 µM.

As to `C1CCN(CCSC2=NCC3(CC3)N2)C1` [Example 187, 5-((2-(pyrrolidin-1-yl)ethyl)thio)-4,6-diazaspiro[2.4]hept-5-ene dihydrochloride], the IC50 in data set [1] (Homo sapiens, PBMC) is not above 10 µM.

In the case of `c1ccc2c(c1)CCN=C(SCc1ccncc1)N2` [Example 188, 2-((pyridin-4-ylmethyl)thio)-4,5-dihydro-1H-benzo[d][1,3]diazepine dihydrochloride], the half-inhibitory concentration (IC50) in data set [1] (Homo sapiens, PBMC) was 10 to 32 µM.

For `c1ccc2c(c1)CN=C(SCc1ccncc1)NC2` [Example 189, 3-((pyridin-4-ylmethyl)thio)-2,5-dihydro-1H-benzo[e][1,3]diazepine dihydrochloride], in data set [1] (Homo sapiens, PBMC), the IC50 was more than 32 µM.

For `c1ccc2c(c1)CCN=C(SCCCN1CCCC1)N2` [Example 190, 2-((3-(pyrrolidin-1-yl)propyl)thio)-4,5-dihydro-3H-benzo[d][1,3]diazepine dihydrochloride], the IC50 in data set [1] (Homo sapiens, PBMC) lay within 10 to 32 µM.

In the case of `c1ccc2c(c1)CCN=C(SCCN1CCCc3ccccc31)N2` [Example 191, 2-((2-(3,4-dihydroquinolin-1(2H)-yl)ethyl)thio)-4,5-dihydro-1H-benzo[d][1,3]diazepine hydrochloride], the IC50 in data set [1] (Homo sapiens, PBMC) was in the range of 10 to 32 µM.

`c1ccc2c(c1)CCN=C(SCCN1CCc3ccccc31)N2` [Example 192, 2-((2-(indolin-1-yl)ethyl)thio)-4,5-dihydro-1H-benzo[d][1,3]diazepine hydrochloride]: in data set [1] (Homo sapiens, PBMC), the IC50 was in the range of 10 to 32 µM.

As to `c1cncc(CSC2=NCc3ccccc3CN2)c1` [Example 193, 3-((pyridin-3-ylmethyl)thio)-2,5-dihydro-1H-benzo[e][1,3]diazepine], in data set [1] (Homo sapiens, PBMC), the IC50 is more than 32 µM.

`c1ccc2c(c1)CN=C(SCCCN1CCCC1)NC2` [Example 194, 3-((3-(pyrrolidin-1-yl)propyl)thio)-2,5-dihydro-1H-benzo[e][1,3]diazepine dihydrochloride]: in data set [1] (Homo sapiens, PBMC), the IC50 is more than 32 µM.

`Fc1ccc(CC2CN3C(CSC4=NCc5ccccc5N4)=CSC3=N2)cc1` (stereo not drawn) [Example 196, 3-(((1,4-dihydroquinazolin-2-yl)thio)methyl)-6-(4-fluorobenzyl)-5,6-dihydroimidazo[2,1-b]thiazole dihydrochloride]: the IC50 in data set [1] (Homo sapiens, PBMC) was not above 10 µM.

For `CC(C)(C)OC(=O)N1CC[C@H](SC2=NCCc3ccccc3N2)C1` [Example 198, tert-butyl (S)-3-((4,5-dihydro-1H-benzo[d][1,3]diazepin-2-yl)thio)pyrrolidine-1-carboxylate], in data set [1] (Homo sapiens, PBMC), the IC50 lay in the range of 10 to 32 µM.

Take `c1ccc2c(c1)CCN=C(S[C@H]1CCNC1)N2` [Example 199, (S)-2-(pyrrolidin-3-ylthio)-4,5-dihydro-3H-benzo[d][1,3]diazepine dihydrochloride]: in data set [1] (Homo sapiens, PBMC), the IC50 lay within 10 to 32 µM.

Turning to `CN1CC[C@H](SC2=NCCc3ccccc3N2)C1` [Example 200, (S)-2-((1-methylpyrrolidin-3-yl)thio)-4,5-dihydro-3H-benzo[d][1,3]diazepine dihydrochloride], the concentration for half-maximal inhibition (IC50) in data set [1] (Homo sapiens, PBMC) is not above 10 µM.

`CC1(C)CN2C(CSC(=NC3CCCCC3)NC3CCCCC3)=CSC2=N1` [IT1t, reference compound]: in data set [1] (PBMCs from 2 healthy donors, R848 5 μg/mL, IFN in supernatant by twINNE luciferase reporter, IT1t value is mean of at least 7 independent sets), the IC50 is 32 µM.
